This note sets out measurements from patent US12503436B2, “Compounds and compositions for treating conditions associated with STING activity” (NOVARTIS PHARMA AG, priority 2021, dated 2025).

SMILES strings stand for the structures.

For this assay, the target named is STING (Homo sapiens, UniProt Q86WV6, G230A/H232R/R293Q/R71H). In words: STING reporter assay in THP1-Dual KO-IFNAR2 cells (2′3′cGAMP stimulation, luciferase reporter). The class given is cell-based. To be noted: 15 μM 2′3′cGAMP stimulation, 24 h, read-out: Pharmaron, THP1_IFNAR2 STING 24 h Luci Normalized: GeoMean EC50. In outline: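 THP1-Dual KO-IFNAR2 cells (2×10E6 cells/mL) with compounds at 0.0017-100 μM final, stimulated with 15 μM final 2′3′cGAMP delivered by Lipofectamine 2000; 24 h at 37 °C. Luciferase in supernatant read with QUANTI-Luc Plus; EC50 derived from luminescence.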
Chain of STING (Q86WV6 whole entry R71H/G230A/H232R/R293Q): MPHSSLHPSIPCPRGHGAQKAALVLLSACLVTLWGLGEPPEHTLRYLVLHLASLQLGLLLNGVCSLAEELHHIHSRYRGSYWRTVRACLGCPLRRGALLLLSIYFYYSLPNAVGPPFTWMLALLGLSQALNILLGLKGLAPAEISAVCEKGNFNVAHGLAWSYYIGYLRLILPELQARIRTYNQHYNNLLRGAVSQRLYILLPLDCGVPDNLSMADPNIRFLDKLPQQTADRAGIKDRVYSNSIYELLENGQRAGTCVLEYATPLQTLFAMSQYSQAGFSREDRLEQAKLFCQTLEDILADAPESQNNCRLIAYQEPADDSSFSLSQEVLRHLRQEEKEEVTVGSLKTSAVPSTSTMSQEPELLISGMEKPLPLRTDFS
Background: A reporter such as luciferase makes a cellular process visible.
A word on the EC50: it is the midpoint of the concentration-response curve. For `O=C(Nc1c[nH]c2ccc(O[C@H]3C[C@@H](c4ccc(C(F)(F)F)nc4)C3)cc12)[C@H]1C[C@@H](CO)C1` [Compound 550, cis-3-(hydroxymethyl)-N-(5-(cis-3-(6-(trifluoromethyl)pyridin-3-yl)cyclobutoxy)-1H-indol-3-yl)cyclobutane-1-carboxamide], the EC50 fell in the range of 0.2 to 1 µM.
For the compound `O=C(Nc1c[nH]c2ccc(O[C@H]3C[C@@H](c4ccc(C(F)(F)F)nc4)C3)cc12)[C@H]1C[C@H](CO)C1` [Compound 551, trans-3-(hydroxymethyl)-N-(5-(cis-3-(6-(trifluoromethyl)pyridin-3-yl)cyclobutoxy)-1H-indol-3-yl)cyclobutane-1-carboxamide], the EC50 was in the range of 0.2 to 1 µM.
Take `O=C(Nc1c[nH]c2ccc(O[C@H]3C[C@H](c4ccc(C(F)(F)F)nc4)C3)cc12)[C@H]1C[C@@H](CO)C1` [Compound 552, cis-3-(hydroxymethyl)-N-(5-(trans-3-(6-(trifluoromethyl)pyridin-3-yl)cyclobutoxy)-1H-indol-3-yl)cyclobutane-1-carboxamide]: the EC50 was 0.2 to 1 µM.
Regarding `O=C(Nc1c[nH]c2ccc(O[C@H]3C[C@H](c4ccc(C(F)(F)F)nc4)C3)cc12)[C@H]1C[C@H](CO)C1` [Compound 553, trans-3-(hydroxymethyl)-N-(5-(trans-3-(6-(trifluoromethyl)pyridin-3-yl)cyclobutoxy)-1H-indol-3-yl)cyclobutane-1-carboxamide], the EC50 lay within 0.2 to 1 µM.
The same measure for `O=C(Nc1c[nH]c2ccc(O[C@H]3C[C@H](c4ccc(C(F)(F)F)cc4)C3)cc12)C1CC(Cl)C1` (stereo partly drawn) [Compound 554, 3-chloro-N-(5-(trans-3-(4-(trifluoromethyl)phenyl)cyclobutoxy)-1H-indol-3-yl)cyclobutane-1-carboxamide]: 0.2 to 1 µM; for `CC(=O)Nc1c[nH]c2ccc(CCOc3cnc4c(C(F)(F)F)cccc4c3)cc12` [Compound 555, N-(5-(2-((8-(trifluoromethyl)quinolin-3-yl)oxy)ethyl)-1H-indol-3-yl)acetamide]: 1 to 5 µM.
For the compound `CC(=O)Nc1c[nH]c2ccc(CCOc3ccc(Cl)nc3C)cc12` [Compound 556, N-(5-(2-((6-chloro-2-methylpyridin-3-yl)oxy)ethyl)-1H-indol-3-yl)acetamide], the concentration for a half-maximal effect (EC50) was in the range of 5 to 100 µM.
Turning to `CC(=O)Nc1c[nH]c2ccc(CCOc3cnc(Cl)c(C)c3)cc12` [Compound 557, N-(5-(2-((6-chloro-5-methylpyridin-3-yl)oxy)ethyl)-1H-indol-3-yl)acetamide], the EC50 fell in the range of 1 to 5 µM.
The same measure for `CC(=O)Nc1c[nH]c2ccc(CCOc3ccccc3)cc12` [Compound 558, N-(5-(2-phenoxyethyl)-1H-indol-3-yl)acetamide]: 0.2 to 1 µM.
Under `CC(=O)Nc1c[nH]c2ccc(CCOc3cc(Cl)nc(C(F)(F)F)c3)cc12` [Compound 559, N-(5-(2-((2-chloro-6-(trifluoromethyl)pyridin-4-yl)oxy)ethyl)-1H-indol-3-yl)acetamide] stands 0.2 to 1 µM; under `CC(=O)Nc1c[nH]c2ccc(CCOc3cnc4cccc(Cl)c4c3)cc12` [Compound 560, N-(5-(2-((5-chloroquinolin-3-yl)oxy)ethyl)-1H-indol-3-yl)acetamide], 1 to 5 µM; under `CC1(C(=O)Nc2c[nH]c3ccc(OCCc4ccc(C(F)(F)F)cc4)cc23)CN(CC(F)F)C1` [Compound 561, 1-(2,2-difluoroethyl)-3-methyl-N-(5-(4-(trifluoromethyl)phenethoxy)-1H-indol-3-yl)azetidine-3-carboxamide], 0.04 to 0.2 µM.
Take `N#C[C@H]1C[C@@H]1C(=O)Nc1c[nH]c2ccc(O[C@H]3C[C@H](c4ccc(C(F)(F)F)cc4)C3)cc12` [Compound 562, (1s,2s)-2-cyano-N-(5-((trans)-3-(4-(trifluoromethyl)phenyl)cyclobutoxy)-1H-indol-3-yl)cyclopropane-1-carboxamide]: the EC50 lay in the range of 0.2 to 1 µM.
